Data: patent US20150141411A1, “SUBSTITUTED 3,4-DIHYDRO-2H-PYRIDO[1,2-A]PYRAZINE-1,6-DIONE DERIVATIVES USEFUL FOR THE TREATMENT OF (INTER ALIA) ALZHEIMER'S DISEASE” (Janssen Pharmaceuticals, Inc., priority 2012, published 2015)

Experiments:
Aβ38 = assay: In vivo efficacy: brain soluble Aβ38 in non-transgenic rodents (MSD electrochemiluminescence multiplex); design: species or system mouse; conditions: Mus musculus, po, 4 h, dose 30 mg/kg oral dosing, brain soluble fraction, animals sacrificed after 4 h, untreated animals (Ctrl) set at 100, read-out: Aβ38 (% vs Ctrl)_Mean
Text: To determine whether acute administration of an Aβ38 increasing agents would increase Aβ38 levels in vivo, non-transgenic rodents, e.g. mice or rats were used. Animals treated with the Aβ38 increasing agents were examined and compared to those untreated or treated with vehicle and brain levels of soluble Aβ42, Aβ40, Aβ38, and Aβ37 were quantitated by MSD electrochemiluminescence detection technology. Treatment periods varied from hours (h) to days and were adjusted based on the results of the Aβ38 increase once a time course of onset of effect could be established.
A typical protocol for measuring Aβ38 increase in vivo is shown but it is only one of many variations that could be used to optimize the levels of detectable Aβ. For example, Aβ38 increasing agents were formulated in 20% of Captisol® (a sulfobutyl ether of β-cyclodextrin) in water or 20% hydroxypropyl βcyclodextrin. The Aβ38 increasing agents were administered as a single oral dose or by any acceptable route of administration to overnight fasted animals. After 4 h, the animals were sacrificed and Aβ38 levels were analysed.
Blood was collected by decapitation and exsanguinations in EDTA-treated collection tubes. Blood was centrifuged at 1900 g for 10 minutes (min) at 4° C. and the plasma recovered and flash frozen for later analysis. The brain was removed from the cranium and hindbrain. The cerebellum was removed and the left and right hemisphere were separated. The left hemisphere was stored at −18° C. for quantitative analysis of test compound levels. The right hemisphere was rinsed with phosphate-buffered saline (PBS) buffer and immediately frozen on dry ice and stored at −80° C. until homogenization for biochemical assays.
Mouse brains from non-transgenic animals were resuspended in 8 volumes of 0.4% DEA (diethylamine)/50 mM NaCl containing protease inhibitors (Roche-11873580001 or 04693159001) per gram of tissue, e.g. for 0.158 g brain, add 1.264 ml of 0.4% DEA. All samples were homogenized in the FastPrep-24 system (MP Biomedicals) using lysing matrix D (MPBio #6913-100) at 6 m/s for 20 seconds. Homogenates were centrifuged at 20800×g for 5 min and supernatants collected. Supernatants were centrifuged at 221.300×g for 50 min. The resulting high speed supernatants were then transferred to fresh eppendorf tubes. Nine parts of supernatant were neutralized with 1 part 0.5 M Tris-HCl pH 6.8 and used to quantify Aβ.
To quantify the amount of Aβ42, Aβ40, Aβ38, and Aβ37 in the soluble fraction of the brain homogenates, simultaneous specific detection of Aβ42, Aβ40, Aβ38, and Aβ37 was performed using MSD's electro-chemiluminescence multiplex detection technology. In this assay purified monoclonal antibodies specific for Abeta37 (JRD/Aβ37/3), Abeta38 (J&JPRD/Aβ38/5), Abeta40 (JRF/cAβ40/28), and Abeta42 (JRF/cAβ42/26) were coated on MSD 4-plex plates. Briefly, the standards (a dilution of synthetic Aβ42, Aβ40, Aβ38, and Aβ37) were prepared in 1.5 ml Eppendorf tube in Ultraculture, with final concentrations ranging from 10000 to 0.3 pg/m. The samples and standards were co-incubated with Sulfo-tag labelled JRF/rAβ/2 antibody to the N-terminus of Aβ as detector antibody. 50 μl of conjugate/sample or conjugate/standards mixtures were then added to the antibody-coated plate. The plate was allowed to incubate overnight at 4° C. in order to allow formation of the antibody-amyloid complex. Following this incubation and subsequent wash steps the assay was finished by adding read buffer according to the manufacturer's instructions (MesoScale Discovery, Gaitherburg, Md.).
The SULFO-TAG emits light upon electrochemical stimulation initiated at the electrode. MSD Sector instrument SI6000 was used for signal read-out.
In this model a Aβ38 increase compared to untreated animals would be advantageous, in particular a Aβ38 increase with at least 10%, more in particular a Aβ38 increase with at least 20%. […]

γ-secretase = target: T1, γ-secretase (Homo sapiens, UniProt P49768); assay: Screening for γ-secretase-modulating activity: Aβtotal in supernatant of SKNBE2 cells carrying hAPP 695 wild type (Alphalisa); type: cell-based; conditions: SKNBE2 human neuroblastoma cells carrying hAPP 695 wild type, overnight incubation, Aβtotal in cell supernatant
T1 construct: endogenous in cells; host or cells: SKNBE2 human neuroblastoma cells (carrying hAPP 695 wild type as substrate)
Outline: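 SKNBE2 neuroblastoma cells expressing wild-type hAPP 695 plated at 10^4 cells/well in Ultraculture with test compound, incubated overnight at 37° C. Aβ42 (C-terminal/N-terminal antibody pair) and Aβtotal (N-terminal/4G8 pair) in supernatant quantified by AlphaLISA. IC50 from 4-parameter fit of percent of compound-free control.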

| Structure (SMILES) | response vs control in vivo at 30 mg/kg (Aβ38) [%] | IC50 (γ-secretase) [µM] |
| --- | --- | --- |
| Cc1cn(-c2ccc3n(c2=O)C[C@@H](C)N(Cc2cc(OCC(F)(F)F)cc(C(F)(F)F)c2)C3=O)cn1 [compound 166] | 127 | > 10 |
| Cc1cn(-c2ccc3n(c2=O)C[C@@H](C)N(Cc2c[nH]c4cc(F)c(Cl)cc24)C3=O)cn1 [compound 195] | 123 | 6.46 |
